Test results from patent US9681661B2, “Method of controlling parasitic weeds with mixtures comprising herbicidal acetolactate synthase inhibitors and plant growth regulators” (BASF Agrochemical Products B.V., priority 2011, dated 2017).

Key:
Orobanche cumana (ORACE) = test: Field experiment: herbicidal activity against natural Orobanche cumana infestation in sunflower, postemergence treatments; assay type: in vivo; conditions: Imazamox 50 and/or Prohexadione-Ca 100 g a.i./ha total
Description: Host test plants were, uniform and homogeneous with respect to age, cultivar, and row spacing and distance in the row. Plot size 2.8 m×10 m-4 rows per plot. Test area was kept weed free of conventional weeds (monocotyledon and dicotyledonous weeds) by hand hoeing. Natural infestations of parasitic weeds were present in the soil of the test areas. Postemergence treatments where performed with up to 4 application timings regarding the growth stage of the host plant. Application timings are specified with M, N, O, and P and related to the following growth stages of the host test plants according to the BBCH-scale” Lancashire, […] Boom, E. Weber and A. Witzenberger, 1991: A uniform decimal code for growth stages of crops and weeds. Ann. appl. […] Sequential application were performed with the solo active components and compared to the respective mixture. The respectively stated components A) and B) were used as commercially available formulations and, with addition of a solvent system, introduced into the spray medium used for applying the active composition. In the examples, the spray medium used was water. […] The test period extended over 1 to 4 month. During this time, the plants were tended, and their response to the individual treatments was evaluated. Evaluation was carried out using a scale from 0 to 100 to express activity (in %). 100% means no emergence of the parasitic plants, or complete destruction of at least the above-ground parts, and 0% means no damage or normal course of growth of the parasitic plants. Good herbicidal activity is given at values of at least 70, and very good herbicidal activity is given at values of at least 85. In the examples below, using the method of S. R. Colby (1967) “Calculating synergistic and antagonistic responses of herbicide combinations”, Weeds 15, p. 22ff., the value E, which is expected if the activity of the individual active compounds is only additive, was calculated. E=X+Y-(X·Y/100) • where • X=percent activity using active component A) at an application rate a; • Y=percent activity using active component B) at an application rate b; • E=expected activity (in %) by A)+B) at application rates a+b. If the value found experimentally is higher than the value E calculated according to Colby, a synergistic effect is present. The herbicidal activity of the tested compositions against Orobanche cumana (ORACE) according to the invention is compiled in table V.

Orobanche sp. (ORASS) [1] = test: Field experiment: delay of weed emergence and number of Orobanche plants per host plant in imazamox tolerant sunflower; assay type: in vivo; conditions: Imazamox 30 g/ha at BBCH 14-15 and 20 g/ha at BBCH 16-18, Prohexadione-Ca 60 g/ha at BBCH 14-15 and 40 g/ha at BBCH 16-18; for first visible emergence of orobanche (DAT): untreated 22
sunflower = test: Field experiment: yield of sunflower seeds under Orobanche infestation; assay type: in vivo, Helianthus annuus L.; conditions: Imazamox 30 g/ha at BBCH 14-15 and 20 g/ha at BBCH 16-18; Prohexadione-Ca 60 g/ha at BBCH 14-15 and 40 g/ha at BBCH 16-18; untreated 1127
Orobanche sp. (ORASS) [2] = test: Impact of host infestation with Orobanche, tank mixture versus single application, score 1 to 10; assay type: in vivo; conditions: 21 days after treatment; application at BBCH 16-18; Imazamox 15 g/ha, Prohexadione-Ca 75 g/ha; value 1 (no infestation) to 10 (high negative impact)
Description: Seeds of sunflower (Helianthus annuus L.) where sown as host test plants using small scale field experiment equipment. Host test plants were, uniform and homogeneous with respect to age, cultivar, and row spacing and distance in the row. Plot size 2.8 m×10 m—4 rows per plot. Test area was kept weed free of conventional weeds (monocotyledon and dicotyledonous weeds) by hand hoeing. Natural infestations of parasitic weeds were present in the soil of the test areas. Sequential application were performed with the solo active components and compared to the respective mixture. The respectively stated components A) and B) were used as commercially available formulations and, with addition of a solvent system, introduced into the spray medium used for applying the active composition. In the examples, the spray medium used was water.

Orobanche cumana = conditions: reported in EP 0123001 (A1) / Fan et al., Weed Research 2007; cited from earlier work
[3] = timing M, N, O, P (BBCH growth stage), scale 0 to 100, 100 = no emergence or complete destruction
[4] = timing M, O (BBCH growth stage), scale 0 to 100
[5] = timing N, P (BBCH growth stage), scale 0 to 100

Row | Compound | activity in % (Orobanche cumana (ORACE); [3]) [%] | activity in % (Orobanche cumana (ORACE); [4]) [%] | activity in % (Orobanche cumana (ORACE); [5]) [%] | no. of orobanche plants per host plant (Orobanche sp. (ORASS) [1]) | first visible emergence of orobanche (DAT) (Orobanche sp. (ORASS) [1]) | yield of sunflower seeds (sunflower) [kg/ha] | impact of host infestation with ORASS (Orobanche sp. (ORASS) [2]) | sunflower resistance against infection with Orobanche cumana (Orobanche cumana)
1 | COCc1cnc(C2=NC(C)(C(C)C)C(=O)N2)c(C(=O)O)c1 (stereo not drawn) [Imazamox, imazamox] | 69 | 67 | 68 | 15 | 81 | 2055 | 4 | 
2 | prohexadione-calcium | 2 | 5 | 8 | 55 | 63 | 961 | 6 | induces sunflower resistance
